Laboratory results: the NIST ThermoML archive (doi:10.1016/j.jct.2007.05.011)
± gives the expanded uncertainty stated by the source.

Test: xn = mol fraction of the nth substance listed
Details: 101 kPa, Liquid; for mass density: Vibrating tube method

NCCO.O=CO [2-hydroxyethylammonium formate] + O
Details	mass density, 288.15 K [kg/m3]	mass density, 290.65 K [kg/m3]	mass density, 293.15 K [kg/m3]	mass density, 295.65 K [kg/m3]	speed of sound, 288.15 K [m/s]	speed of sound, 290.65 K [m/s]	speed of sound, 293.15 K [m/s]	speed of sound, 295.65 K [m/s]
x2 = 0	1183.57 ± 31	1181.81 ± 31	1180.04 ± 31	1178.27 ± 31	1733.9 ± 9.9	1727.4 ± 9.9	1721.3 ± 9.8	1715.1 ± 9.8
x2 = 0.047	1182.89 ± 31	1181.24 ± 31	1179.6 ± 31	1177.95 ± 31	1759.2 ± 9.9	1754 ± 9.8	1748.9 ± 9.8	1743.8 ± 9.8
x2 = 0.108	1181.45 ± 31	1179.79 ± 31	1178.13 ± 30	1176.52 ± 30	1760.3 ± 9.7	1755.5 ± 9.7	1750.5 ± 9.7	1745.4 ± 9.7
x2 = 0.199	1178.55 ± 30	1176.92 ± 30	1175.29 ± 30	1173.65 ± 30	1761.4 ± 9.6	1756.4 ± 9.5	1751.4 ± 9.5	1746.5 ± 9.5
x2 = 0.311	1173.68 ± 30	1172.05 ± 30	1170.43 ± 30	1168.8 ± 30	1761.4 ± 9.3	1756.7 ± 9.3	1752 ± 9.3	1747.2 ± 9.3
x2 = 0.4	1168.78 ± 30	1167.17 ± 30	1165.55 ± 30	1163.94 ± 30	1759.7 ± 9.2	1755.1 ± 9.2	1750.6 ± 9.1	1746.1 ± 9.1
x2 = 0.492	1162.23 ± 30	1160.63 ± 30	1159.04 ± 30	1157.44 ± 30	1757.1 ± 9	1752.9 ± 9	1748.7 ± 9	–
x2 = 0.601	1151.56 ± 30	1149.99 ± 30	1148.42 ± 30	1146.85 ± 30	1749.9 ± 8.9	1746.3 ± 8.8	1742.6 ± 8.8	–
x2 = 0.699	1137.39 ± 30	1135.87 ± 30	1134.35 ± 30	1132.83 ± 30	1739.3 ± 8.7	1736.3 ± 8.7	1733.3 ± 8.7	–
x2 = 0.8	1114.92 ± 30	1113.52 ± 30	1112.1 ± 30	1110.67 ± 30	1710.8 ± 8.5	1709.2 ± 8.5	1707.5 ± 8.5	–
x2 = 0.9	1076.21 ± 30	1075.06 ± 30	1073.89 ± 30	1072.7 ± 30	1644.7 ± 8.2	1645.8 ± 8.2	1646.8 ± 8.2	–
x2 = 0.95	1045.03 ± 30	1044.13 ± 30	1043.2 ± 30	1042.26 ± 30	1578.9 ± 8	1582.3 ± 7.9	1585.6 ± 8	–
